# Laboratory results: patent US20200325140A1, “FUSED BICYCLIC COMPOUNDS FOR THE TREATMENT OF DISEASE” (Akarna Therapeutics, Ltd., priority 2016, published 2020)
# Target: T1, FXR (Homo sapiens, UniProt Q96RI1)
# T1 sequence (Q96RI1 1-486): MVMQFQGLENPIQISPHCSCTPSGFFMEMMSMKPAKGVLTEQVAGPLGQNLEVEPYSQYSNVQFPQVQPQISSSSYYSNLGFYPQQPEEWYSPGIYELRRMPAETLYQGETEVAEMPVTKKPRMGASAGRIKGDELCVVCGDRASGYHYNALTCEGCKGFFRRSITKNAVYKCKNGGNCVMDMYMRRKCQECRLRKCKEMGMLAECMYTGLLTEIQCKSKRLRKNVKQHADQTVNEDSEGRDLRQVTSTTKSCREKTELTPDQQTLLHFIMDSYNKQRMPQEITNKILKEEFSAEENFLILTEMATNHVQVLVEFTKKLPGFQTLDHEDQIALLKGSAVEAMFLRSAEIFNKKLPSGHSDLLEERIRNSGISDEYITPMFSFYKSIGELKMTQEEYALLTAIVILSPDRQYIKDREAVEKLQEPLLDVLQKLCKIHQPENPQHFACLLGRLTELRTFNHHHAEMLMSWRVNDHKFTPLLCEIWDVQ
# Experiment: FXR Agonist Assay (Gaussia luciferase reporter in cells)
# Type: cell-based
# Details: 20 hours incubation, 10-point dilution, duplicate
# Experimental: Starting from 3.33 mM of compound in DMSO solution, a 10-point 3-fold serial dilution was made by diluting 5 μL of compound into 10 μL of DMSO. The serially diluted compound was then diluted 1:33 into DMEM. This medium was then diluted ten-fold into the culture medium with the cells (10 μL/well). All concentration points are assayed in duplicate. Plates were incubated at 37° C. for 20 hours. After the incubation, 20 μL of culture medium were removed from each well and mixed with 50 μL of assay solution (Pierce™ Gaussia Luciferase Flash Assay Kit). The luminescence was measured immediately after addition of the Luc substrate with an Envision microplate reader. The raw data was uploaded to CDD and dose-response curves were generated using the Levenberg-Marquardt algorithm integrated into CDD. A negative control DMSO is included on each plate and used to normalize the data with the CDD built-in normalization function.
row,Compound,EC50
1,"CC(C)OC(=O)C1=CN(C(=O)c2ccc(OCCN(C)C)cc2)CC(C)(C)c2c(C(F)(F)F)n[nH]c21 [Compound 1, (E)-isopropyl 6-(4-(2-(dimethylamino)ethoxy)benzoyl)-4,4-dimethyl-3-(trifluoromethyl)-1,4,5,6-tetrahydropyrazolo[3,4-d]azepine-8-carboxylate]",200 to 1000 nM
2,"CC(C)OC(=O)C1=CN(C(=O)c2ccc(OCCn3ccnc3)cc2)CC(C)(C)c2c(C(F)(F)F)n[nH]c21 [Compound 2, (E)-isopropyl 6-(4-(2-(1H-imidazol-1-yl)ethoxy)benzoyl)-4,4-dimethyl-3-(trifluoromethyl)-1,4,5,6-tetrahydropyrazolo[3,4-d]azepine-8-carboxylate]",< 200 nM

# More lines, now with the values ahead:
row,EC50,Compound
1,200 to 1000 nM,"CC(C)OC(=O)C1=CN(C(=O)c2ccc(OCCN3CCN(C)CC3)cc2)CC(C)(C)c2c(C(F)(F)F)n[nH]c21 [Compound 3, (E)-isopropyl 4,4-dimethyl-6-(4-(2-(4-methylpiperazin-1-yl)ethoxy)benzoyl)-3-(trifluoromethyl)-1,4,5,6-tetrahydropyrazolo[3,4-d]azepine-8-carboxylate]"
2,1000 to 10000 nM,"CC(C)OC(=O)C1=CN(C(=O)c2ccc(OCCN3CCCC3)cc2)CC(C)(C)c2c(C(F)(F)F)n[nH]c21 [Compound 4, (E)-isopropyl 4,4-dimethyl-6-(4-(2-(pyrrolidin-1-yl)ethoxy)benzoyl)-3-(trifluoromethyl)-1,4,5,6-tetrahydropyrazolo[3,4-d]azepine-8-carboxylate]"
3,< 200 nM,"CC(C)OC(=O)C1=CN(C(=O)c2cc(F)c(OCCN3CCOCC3)c(F)c2)CC(C)(C)c2c(C(F)(F)F)n[nH]c21 [Compound 5, (E)-isopropyl 6-(3,5-difluoro-4-(2-morpholinoethoxy)benzoyl)-4,4-dimethyl-3-(trifluoromethyl)-1,4,5,6-tetrahydropyrazolo[3,4-d]azepine-8-carboxylate]"
